Values after ≈ are worked out from the molar mass of the structure shown.

Results on six molecules are retold here after ChEMBL document CHEMBL2390858, “Design, synthesis and anti-tuberculosis activity of 1-adamantyl-3-heteroaryl ureas with improved in vitro pharmacokinetic properties” (Bioorg Med Chem, 2013).

The test system of one data set is Proteus vulgaris. As to the kind of experiment: microbe, parasite or virus in culture.
The next data set concerns Bacillus subtilis. The data set is described as follows: microbe, parasite or virus in culture.
Another data set relates to Bacillus anthracis. As to the kind of experiment: microbe, parasite or virus in culture. The following applies: Sterne.
For the next data set, the system named is Streptococcus pneumoniae. The data set is described as follows: microbe, parasite or virus in culture.
Data set [1] concerns Staphylococcus aureus. As to the kind of experiment: microbe, parasite or virus in culture. As to conditions: ATCC 29213.
The conditions of data set [2]: buffer, 18 h, pH 7.4.
The target in data set [3] is T1, Bifunctional epoxide hydrolase 2 (Homo sapiens, UniProt P34913).
T1 sequence (P34913 whole entry): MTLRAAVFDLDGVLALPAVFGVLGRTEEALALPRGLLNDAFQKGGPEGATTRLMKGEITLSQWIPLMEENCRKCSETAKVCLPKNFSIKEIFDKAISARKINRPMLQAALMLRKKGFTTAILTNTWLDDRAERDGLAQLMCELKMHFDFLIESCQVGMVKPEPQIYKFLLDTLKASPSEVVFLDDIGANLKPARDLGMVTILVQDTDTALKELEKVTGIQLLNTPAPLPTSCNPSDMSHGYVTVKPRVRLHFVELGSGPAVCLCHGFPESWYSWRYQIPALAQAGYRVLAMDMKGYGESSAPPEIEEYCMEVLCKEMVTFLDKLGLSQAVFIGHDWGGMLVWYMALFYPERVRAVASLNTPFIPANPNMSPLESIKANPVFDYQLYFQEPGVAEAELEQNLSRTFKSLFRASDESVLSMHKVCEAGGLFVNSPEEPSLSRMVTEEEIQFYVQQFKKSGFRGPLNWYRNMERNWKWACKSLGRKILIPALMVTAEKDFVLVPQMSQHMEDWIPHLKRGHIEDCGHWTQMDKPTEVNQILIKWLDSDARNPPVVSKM

Data set [4] relates to Mycobacterium tuberculosis. The data set is described as follows: microbe, parasite or virus in culture. As to conditions: H37Rv, 168 h.
A further data set concerns Burkholderia cepacia. As to the kind of experiment: microbe, parasite or virus in culture.
In another data set the test system is Acinetobacter. The data set is described as follows: microbe, parasite or virus in culture.
Data set [5] relates to Staphylococcus aureus. The data set is described as follows: microbe, parasite or virus in culture. The following applies: NRS70.
For a further data set, the system named is Proteus mirabilis. The data set is described as follows: microbe, parasite or virus in culture.
The subject of another data set is Klebsiella pneumoniae. The data set is described as follows: microbe, parasite or virus in culture.
A further data set relates to Escherichia coli. As to the kind of experiment: microbe, parasite or virus in culture. The following applies: K-12.
A further data set relates to Streptococcus pyogenes. The data set is described as follows: microbe, parasite or virus in culture.
Another data set has as its system Pseudomonas aeruginosa. As to the kind of experiment: microbe, parasite or virus in culture.
The next data set relates to Enterococcus faecalis. The data set is described as follows: microbe, parasite or virus in culture.

By solubility is commonly meant how much of the substance goes into solution per volume. For orientation: IC50 means the concentration needed to halve the response being measured. Lower therefore signals greater potency in that assay. As to `O=C(Nc1nnc(-c2cccs2)o1)NC12CC3CC(CC(C3)C1)C2`, the MIC against Proteus vulgaris was > 200 µg/mL; against Bacillus subtilis it was > 200 µg/mL; with Bacillus anthracis it was > 200 µg/mL; in the data set on Streptococcus pneumoniae it was > 200 µg/mL; against Staphylococcus aureus [1], > 200 µg/mL; in data set [4], 100 µg/mL (≈ 290 µM). In addition, the MIC against Burkholderia cepacia, in the data set with Acinetobacter, with Staphylococcus aureus [5], against Proteus mirabilis, against Klebsiella pneumoniae and against Escherichia coli was > 200 µg/mL each time. In addition, the MIC in the data set on Streptococcus pyogenes and with Pseudomonas aeruginosa was > 200 µg/mL in each case. The molecule further yielded a solubility in data set [2] of 2.2 µg/mL (≈ 6.39 µM). The same molecule came in with a concentration for half-maximal inhibition (IC50) in [3] of 1570 nM.
For the molecule `Cc1noc(NC(=O)NC23CC4CC(CC(C4)C2)C3)c1Cl`, the MIC with Proteus vulgaris was > 200 µg/mL; in the data set on Bacillus subtilis it was > 200 µg/mL; in the data set with Streptococcus pneumoniae, > 200 µg/mL; in the data set on Staphylococcus aureus [1], > 200 µg/mL; in data set [4], 100 µg/mL (≈ 323 µM); against Enterococcus faecalis, > 200 µg/mL. Further, the MIC against Burkholderia cepacia, against Staphylococcus aureus [5], against Proteus mirabilis, in the data set with Klebsiella pneumoniae, against Escherichia coli and with Streptococcus pyogenes was > 200 µg/mL each time. Moreover, the MIC in the data set on Pseudomonas aeruginosa is > 200 µg/mL. Further, the solubility in data set [2] came to 1.5 µg/mL (≈ 4.84 µM). In addition, the 50% inhibitory concentration (IC50) in data set [3] was found to be 0.5 nM.
On to `Cc1onc(NC(=O)NC23CC4CC(CC(C4)C2)C3)c1Br`, for which the MIC against Proteus vulgaris was > 200 µg/mL; against Bacillus subtilis, > 200 µg/mL; in the data set with Bacillus anthracis it was > 200 µg/mL; in the data set on Streptococcus pneumoniae it was > 200 µg/mL; with Staphylococcus aureus [1], 50 µg/mL (≈ 141 µM); in data set [4], 100 µg/mL (≈ 282 µM). For the same molecule, the MIC in the data set with Acinetobacter was > 200 µg/mL; against Staphylococcus aureus [5] it was 200 µg/mL (≈ 565 µM); against Proteus mirabilis it was > 200 µg/mL; in the data set with Klebsiella pneumoniae, > 200 µg/mL; in the data set with Escherichia coli, 50 µg/mL (≈ 141 µM); with Streptococcus pyogenes, > 200 µg/mL. In addition, the MIC against Pseudomonas aeruginosa is > 200 µg/mL. This molecule registered a solubility in data set [2] of 0.1 µg/mL (≈ 0.282 µM). The molecule further returned a concentration for half-maximal inhibition (IC50) in data set [3] of 0.8 nM.
On to `O=C(Nc1ccc(S(=O)(=O)Nc2ccc(Cl)nn2)cc1)NC12CC3CC(CC(C3)C1)C2`, for which the MIC was > 200 µg/mL against Proteus vulgaris; > 200 µg/mL against Bacillus subtilis; 1.56 µg/mL (≈ 3.38 µM) in the data set with Bacillus anthracis; 100 µg/mL (≈ 216 µM) in the data set with Streptococcus pneumoniae; 50 µg/mL (≈ 108 µM) against Staphylococcus aureus [1]; 100 µg/mL (≈ 216 µM) in the data set with Enterococcus faecalis. In addition, the MIC is 100 µg/mL (≈ 216 µM) against Burkholderia cepacia; > 200 µg/mL against Acinetobacter; 100 µg/mL (≈ 216 µM) with Proteus mirabilis; > 200 µg/mL against Klebsiella pneumoniae; > 200 µg/mL in the data set with Escherichia coli; > 200 µg/mL in the data set on Streptococcus pyogenes. Moreover, the MIC against Pseudomonas aeruginosa was > 200 µg/mL. This molecule also returned a solubility in data set [2] of 20.7 µg/mL (≈ 44.8 µM). In addition, in [3], the midpoint of inhibition, the IC50, lay at 19 nM.
`Cc1noc(NC(=O)NC23CC4CC(CC(C4)C2)C3)c1C`: the MIC is > 200 µg/mL against Proteus vulgaris; > 200 µg/mL in the data set on Bacillus subtilis; > 200 µg/mL with Streptococcus pneumoniae; > 200 µg/mL against Staphylococcus aureus [1]; 100 µg/mL (≈ 346 µM) in data set [4]; > 200 µg/mL in the data set on Enterococcus faecalis. For the same molecule, the MIC in the data set on Burkholderia cepacia, in the data set with Staphylococcus aureus [5], against Proteus mirabilis, against Klebsiella pneumoniae, with Escherichia coli and against Streptococcus pyogenes was > 200 µg/mL each time. Further, the MIC in the data set on Pseudomonas aeruginosa was > 200 µg/mL. For the same molecule, the solubility in data set [2] was determined as 5.7 µg/mL (≈ 19.7 µM). In data set [3], the IC50 was found to be 20 nM.
Regarding `O=C(Nc1ccccn1)NC12CC3CC(CC(C3)C1)C2`, the MIC with Proteus vulgaris, against Bacillus anthracis, against Streptococcus pneumoniae, against Acinetobacter, with Proteus mirabilis and with Klebsiella pneumoniae was > 200 µg/mL throughout. Besides, the MIC against Escherichia coli, with Streptococcus pyogenes and with Pseudomonas aeruginosa was > 200 µg/mL each time. For the same molecule, the solubility in data set [2] was 1.4 µg/mL (≈ 5.16 µM). The molecule further registered an IC50 in data set [3] of 1500 nM.
